Measurements: PMC2553842, “L-DOPA Is an Endogenous Ligand for OA1” (PLoS Biology, 2008)

Molecular target: T1, OA1 (Homo sapiens, UniProt P51810)
T1 construct: gene GPR143
Assay: radioligand saturation binding ([3H]-L-DOPA) on OA1-transfected CHO cells, with Scatchard analysis; supported by calcium response and beta-arrestin recruitment
Assay type: cell-based

T1 sequence (P51810 whole entry): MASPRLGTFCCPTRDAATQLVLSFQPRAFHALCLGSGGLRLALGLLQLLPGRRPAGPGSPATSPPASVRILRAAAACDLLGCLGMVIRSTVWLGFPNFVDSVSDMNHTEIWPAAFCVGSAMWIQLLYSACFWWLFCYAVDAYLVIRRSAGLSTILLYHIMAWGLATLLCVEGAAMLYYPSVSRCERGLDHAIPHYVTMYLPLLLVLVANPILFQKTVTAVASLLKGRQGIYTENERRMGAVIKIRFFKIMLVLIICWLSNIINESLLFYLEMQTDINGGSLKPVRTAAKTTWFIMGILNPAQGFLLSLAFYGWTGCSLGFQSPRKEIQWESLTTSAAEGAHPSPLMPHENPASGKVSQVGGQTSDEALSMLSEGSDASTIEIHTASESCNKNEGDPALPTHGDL

- Kd: 9.35 µM
SMILES: N[C@@H](Cc1ccc(O)c(O)c1)C(=O)O [L-DOPA]
